The record followed here is PubChem BioAssay AID330 (DTP/NCI, 2004).

“And” between values parts separate entries of the source, which are not always exact repeats. Equal entries are not always repeated. Inconclusive results and toxic doses are left out.

This assay has as its system P388 leukemia ip, CD2F1 mice, survival T/C. In words: NCI In Vivo Anticancer Drug Screen. Data for tumor model P388 Leukemia (intraperitoneal) in CD2F1 (CDF1) mice. Particulars: endpoint: median survival time, higher = longer survival. The method in brief:
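Mice carrying the transplanted tumor received test compound or vehicle. Survival was recorded in each group, and the value is the treated-group measurement divided by that of the vehicle-treated control group.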

Setting [1] is: dose: 50.0 mg/kg/injection, schedule: Q01DX009 (ip), vehicle: saline.
The mark [2] stands for this setting: dose: 100.0 mg/kg/injection, schedule: Q01DX009 (ip), vehicle: saline.
The mark [3] stands for this setting: dose: 50.0 mg/kg/injection, schedule: Q01DX009 (ip), vehicle: saline with Tween-80.
Setting [4] is: dose: 100.0 mg/kg/injection, schedule: Q01DX009 (ip), vehicle: saline with Tween-80.
[5] abbreviates: dose: 200.0 mg/kg/injection, schedule: Q01DX009 (ip), vehicle: saline with Tween-80.
The mark [6] stands for this setting: dose: 60.0 mg/kg/injection, schedule: Q01DX005 (ip), vehicle: saline with Tween-80.
Setting [7] is: dose: 50.0 mg/kg/injection, schedule: Q01DX005 (ip), vehicle: saline with Tween-80.
The mark [8] stands for this setting: dose: 100.0 mg/kg/injection, schedule: Q01DX005 (ip), vehicle: saline with Tween-80.
Setting [9] is: dose: 200.0 mg/kg/injection, schedule: Q01DX005 (ip), vehicle: saline with Tween-80.
Setting [10] is: dose: 25.0 mg/kg/injection, schedule: Q01DX009 (ip), vehicle: Klucel (hydroxypropylcellulose) (HPC).
Where [11] appears, read: dose: 50.0 mg/kg/injection, schedule: Q01DX009 (ip), vehicle: Klucel (hydroxypropylcellulose) (HPC).
Setting [12] is: dose: 100.0 mg/kg/injection, schedule: Q01DX009 (ip), vehicle: Klucel (hydroxypropylcellulose) (HPC).
The mark [13] stands for this setting: dose: 200.0 mg/kg/injection, schedule: Q01DX009 (ip), vehicle: Klucel (hydroxypropylcellulose) (HPC).
The mark [14] stands for this setting: dose: 120.0 mg/kg/injection, schedule: Q01DX005 (ip), vehicle: saline with Tween-80.

Turning to `COc1ccc2c(=O)cc(-c3ccccc3)[nH]c2c1`, the T/C by setting is: (dose: 12.5 mg/kg/injection, schedule: Q01DX009 (ip), vehicle: saline) 90 % of control; (dose: 25.0 mg/kg/injection, schedule: Q01DX009 (ip), vehicle: saline) 98 % of control; under setting [1], 114 % of control; (dose: 65.0 mg/kg/injection, schedule: Q01DX009 (ip), vehicle: saline) 118 % of control; under setting [2], 117 % of control and 118 % of control; (dose: 200.0 mg/kg/injection, schedule: Q01DX009 (ip), vehicle: saline) 99 % of control.
With `N#Cc1c(-c2ccccc2)c(-c2ccccc2)n(-c2ccccc2)c1N`, the T/C runs as follows: under setting [3], 104 % of control; under setting [4], 104 % of control; under setting [5], 104 % of control.
As for `CC(=O)OCC1OC(Sc2ccc([N+](=O)[O-])cc2)C(OC(C)=O)C(OC(C)=O)C1OC(C)=O` (centres undefined), the T/C is, setting by setting: (dose: 15.0 mg/kg/injection, schedule: Q01DX005 (ip), vehicle: saline with Tween-80) 100 % of control; (dose: 30.0 mg/kg/injection, schedule: Q01DX005 (ip), vehicle: saline with Tween-80) 98 % of control; under setting [6], 91 % of control.
Turning to `N[C@H](C(=O)O)[C@H]1ON=C(Cl)[C@@H]1O`, the T/C is, setting by setting: (dose: 0.13 mg/kg/injection, schedule: Q01DX009 (ip), vehicle: saline) 104 % of control and 98 % of control; (dose: 0.25 mg/kg/injection, schedule: Q01DX009 (ip), vehicle: saline) 106 % of control and 113 % of control; (dose: 0.5 mg/kg/injection, schedule: Q01DX009 (ip), vehicle: saline) 112 % of control; (dose: 1.0 mg/kg/injection, schedule: Q01DX009 (ip), vehicle: saline) 117 % of control and 121 % of control; (dose: 2.0 mg/kg/injection, schedule: Q01DX009 (ip), vehicle: saline) 124 % of control; (dose: 4.0 mg/kg/injection, schedule: Q01DX009 (ip), vehicle: saline) 153 % of control. The T/C is, setting by setting: (dose: 8.0 mg/kg/injection, schedule: Q01DX009 (ip), vehicle: saline) 153 % of control; (dose: 16.0 mg/kg/injection, schedule: Q01DX009 (ip), vehicle: saline) 198 % of control.
For the compound `O=C1CN(c2ccc(Cl)cc2)C(=O)CN1/N=C/c1ccco1`, the T/C runs as follows: under setting [7], 103 % of control; under setting [8], 107 % of control; under setting [9], 100 % of control.
Consider `COC(=O)c1ccc(C(=O)OC)c2nc3ccccc3nc12`, for which the T/C (dose: 60.0 mg/kg/injection, schedule: Q01DX005 (ip), vehicle: Klucel (hydroxypropylcellulose) (HPC)) is 97 % of control and the T/C (dose: 120.0 mg/kg/injection, schedule: Q01DX005 (ip), vehicle: Klucel (hydroxypropylcellulose) (HPC)) is 100 % of control.
`O=C(N=C(N=C(c1ccccc1)N1CCOCC1)c1ccccc1)c1ccccc1`: the T/C is 106 % of control under setting [3], 102 % of control under setting [4] and 103 % of control under setting [5].
On to `Cc1ccc(-n2c(COc3c(C)cccc3C)n[nH]c2=S)cc1`, for which the T/C is 100 % of control (dose: 12.5 mg/kg/injection, schedule: Q01DX009 (ip), vehicle: Klucel (hydroxypropylcellulose) (HPC)); 100 % of control under setting [10]; 90 % of control (dose: 50.0 mg/kg/injection, schedule: Q01DX005 (ip), vehicle: Klucel (hydroxypropylcellulose) (HPC)); 109 % of control under setting [11]; 89 % of control (dose: 200.0 mg/kg/injection, schedule: Q01DX005 (ip), vehicle: Klucel (hydroxypropylcellulose) (HPC)).
Consider `Nc1ccc(Nc2c3ccccc3nc3ccccc23)cc1`, for which the T/C is, setting by setting: (dose: 6.25 mg/kg/injection, schedule: Q04DX003 (ip), vehicle: saline) 104 % of control; (dose: 12.5 mg/kg/injection, schedule: Q04DX003 (ip), vehicle: saline) 100 % of control; (dose: 25.0 mg/kg/injection, schedule: Q04DX003 (ip), vehicle: saline) 121 % of control.
`O=C1NC(=O)C(Cc2ccccc2)(Cc2ccccc2)C(=O)N1`: the T/C under setting [4] was 90 % of control; the T/C (dose: 100.0 mg/kg/injection, schedule: Q04DX003 (ip), vehicle: saline with Tween-80) was 110 % of control; the T/C under setting [5] is 95 % of control; the T/C (dose: 200.0 mg/kg/injection, schedule: Q04DX003 (ip), vehicle: saline with Tween-80) was 100 % of control; the T/C (dose: 400.0 mg/kg/injection, schedule: Q01DX009 (ip), vehicle: saline with Tween-80) is 95 % of control; the T/C (dose: 400.0 mg/kg/injection, schedule: Q04DX003 (ip), vehicle: saline with Tween-80) is 110 % of control.
`CCN(CC)CCCC(CCl)Nc1ccnc2cc(Cl)ccc12` (centres undefined): the T/C by setting is: under setting [11], 113 % of control; under setting [1], 97 % of control; under setting [12], 100 % of control; under setting [2], 100 % of control; under setting [13], 98 % of control.
For `CCCCCCCN(CCCCCCC)CC(O)c1cc2ccccc2c2cc(Br)ccc12` (centres undefined), the T/C runs as follows: under setting [7], 109 % of control; under setting [8], 104 % of control; under setting [9], 99 % of control.
`NC(=S)c1cccc(-c2ccccn2)n1`: the T/C by setting is: (dose: 100.0 mg/kg/injection, schedule: Q04DX003 (ip), vehicle: Klucel (hydroxypropylcellulose) (HPC)) 102 % of control; (dose: 200.0 mg/kg/injection, schedule: Q04DX003 (ip), vehicle: Klucel (hydroxypropylcellulose) (HPC)) 103 % of control.
As for `CCCc1cc(=O)[nH]c(Sc2ccc([N+](=O)[O-])cn2)n1`, the T/C by setting is: (dose: 3.12 mg/kg/injection, schedule: Q01DX005 (ip), vehicle: Klucel (hydroxypropylcellulose) (HPC)) 101 % of control; (dose: 6.25 mg/kg/injection, schedule: Q01DX005 (ip), vehicle: Klucel (hydroxypropylcellulose) (HPC)) 101 % of control; (dose: 12.5 mg/kg/injection, schedule: Q01DX005 (ip), vehicle: Klucel (hydroxypropylcellulose) (HPC)) 106 % of control.
With `CCOC(=O)c1cn(CC)c2cc(-n3cccc3)c(F)cc2c1=O`, the T/C runs as follows: under setting [6], 98 % of control; under setting [14], 97 % of control; (dose: 240.0 mg/kg/injection, schedule: Q01DX005 (ip), vehicle: saline with Tween-80) 94 % of control.
For `COc1cc([N+](=O)[O-])c2nccc(C)c2c1`, the T/C under setting [10] is 100 % of control, the T/C under setting [11] is 101 % of control, the T/C under setting [12] was 101 % of control and the T/C under setting [13] is 104 % of control.
`CCOC(=O)C1C(=O)N(C)C(=O)N1c1ccc(C)cc1` (centres undefined): the T/C runs as follows: under setting [6], 98 % of control; under setting [14], 87 % of control.
Regarding `COc1ccc(/C=N/c2oc(-c3ccccc3)c(-c3ccccc3)c2-c2ccc(OC)cc2)cc1`, the T/C (dose: 12.5 mg/kg/injection, schedule: Q01DX005 (ip), vehicle: saline with Tween-80) was 92 % of control and the T/C (dose: 25.0 mg/kg/injection, schedule: Q01DX005 (ip), vehicle: saline with Tween-80) was 87 % of control.
Consider `Nc1ccn(CC(=O)c2ccc(Cl)s2)c(=O)n1`, for which the T/C is 100 % of control (dose: 100.0 mg/kg/injection, schedule: Q04DX003 (ip), vehicle: water); 100 % of control (dose: 200.0 mg/kg/injection, schedule: Q04DX003 (ip), vehicle: water); 104 % of control (dose: 400.0 mg/kg/injection, schedule: Q04DX003 (ip), vehicle: water).
